As usually defined, the Ki is a measure of affinity in units of concentration, obtained from inhibition or displacement.

Chain of PI3Kα (alpha) (P42336 whole entry): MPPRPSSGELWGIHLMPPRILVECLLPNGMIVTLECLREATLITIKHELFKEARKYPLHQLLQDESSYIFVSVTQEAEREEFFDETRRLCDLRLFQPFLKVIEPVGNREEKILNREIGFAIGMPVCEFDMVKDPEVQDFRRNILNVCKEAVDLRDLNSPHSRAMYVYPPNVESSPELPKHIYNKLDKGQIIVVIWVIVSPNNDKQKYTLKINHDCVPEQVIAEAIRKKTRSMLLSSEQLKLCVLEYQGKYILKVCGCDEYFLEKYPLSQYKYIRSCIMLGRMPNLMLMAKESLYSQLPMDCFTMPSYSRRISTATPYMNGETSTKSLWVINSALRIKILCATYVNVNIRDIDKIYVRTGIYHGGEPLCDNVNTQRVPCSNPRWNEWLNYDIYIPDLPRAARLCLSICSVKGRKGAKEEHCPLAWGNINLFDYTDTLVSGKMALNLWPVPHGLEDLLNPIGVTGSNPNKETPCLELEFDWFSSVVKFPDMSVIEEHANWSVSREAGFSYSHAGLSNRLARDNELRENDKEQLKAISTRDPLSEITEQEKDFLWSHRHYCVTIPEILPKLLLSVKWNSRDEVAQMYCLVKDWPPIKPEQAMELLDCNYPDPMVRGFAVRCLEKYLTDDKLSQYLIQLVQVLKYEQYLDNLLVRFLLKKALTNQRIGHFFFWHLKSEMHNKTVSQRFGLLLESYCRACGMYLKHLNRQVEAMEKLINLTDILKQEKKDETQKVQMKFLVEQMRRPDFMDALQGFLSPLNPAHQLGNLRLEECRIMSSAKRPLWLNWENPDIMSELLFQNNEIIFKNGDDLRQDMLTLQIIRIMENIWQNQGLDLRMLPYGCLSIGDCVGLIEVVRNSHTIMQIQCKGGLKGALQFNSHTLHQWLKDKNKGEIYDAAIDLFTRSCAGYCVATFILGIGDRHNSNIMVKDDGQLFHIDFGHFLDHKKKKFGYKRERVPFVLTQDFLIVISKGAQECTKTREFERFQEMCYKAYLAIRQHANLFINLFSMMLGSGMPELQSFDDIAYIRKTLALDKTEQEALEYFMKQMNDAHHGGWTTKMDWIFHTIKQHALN
Chain of PI3Kα (alpha) (P27986 whole entry partner): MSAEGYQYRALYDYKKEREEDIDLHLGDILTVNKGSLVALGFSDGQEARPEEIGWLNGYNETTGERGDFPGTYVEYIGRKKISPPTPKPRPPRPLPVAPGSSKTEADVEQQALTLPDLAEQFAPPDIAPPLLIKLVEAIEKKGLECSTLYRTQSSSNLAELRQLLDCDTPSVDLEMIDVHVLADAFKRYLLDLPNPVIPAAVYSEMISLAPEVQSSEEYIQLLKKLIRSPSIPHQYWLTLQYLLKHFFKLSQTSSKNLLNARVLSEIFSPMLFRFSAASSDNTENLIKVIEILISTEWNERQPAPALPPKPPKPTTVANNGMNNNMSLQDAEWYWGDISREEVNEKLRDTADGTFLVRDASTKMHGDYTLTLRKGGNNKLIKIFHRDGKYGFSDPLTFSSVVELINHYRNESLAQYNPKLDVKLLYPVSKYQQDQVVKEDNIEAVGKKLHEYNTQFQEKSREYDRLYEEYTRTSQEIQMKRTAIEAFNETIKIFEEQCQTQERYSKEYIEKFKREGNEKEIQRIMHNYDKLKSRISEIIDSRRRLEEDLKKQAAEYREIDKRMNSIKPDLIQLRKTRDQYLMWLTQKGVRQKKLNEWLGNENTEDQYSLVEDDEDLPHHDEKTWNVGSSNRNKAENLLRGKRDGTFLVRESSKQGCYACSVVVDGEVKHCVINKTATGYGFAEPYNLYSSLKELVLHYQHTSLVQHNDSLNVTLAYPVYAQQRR

One experiment deals with PI3Kα (alpha) (Homo sapiens (Human), UniProt P42336). Kind of experiment: p110α (alpha) PI3K Binding Assay (ADP-Glo lipid kinase reaction). It counts as biochemical. As to conditions: PI3K alpha 0.2 nM, ATP 40 μM, PIP2:3PS 50 μM, 120 min, room temperature; Ki by Morrison Equation; read-out: PI3Kα-(alpha) ATP (Ki) micromolar. The procedure:
The ability of a compound of the invention to act as an inhibitor of PI3Kα was determined using the methods of Example 901.
PI3K Binding assays are intended for determining the biochemical potency of small molecule PI3K inhibitors. The PI3K lipid kinase reaction is performed in the presence of PIP2:3PS lipid substrate (Promega #V1792) and ATP. Following the termination if the kinase reaction, turnover of ATP to ADP by the phosphorylation of the lipid substrate is detected using the Promega ADP-Glo™ (Promega #V1792) assay. Reactions are carried out using the following conditions:
After 120 minutes of reaction time, the kinase reaction is terminated. Any ATP remaining after the reaction is depleted, leaving only ADP. Then the Kinase Detection Reagent is added to convert ADP to ATP, which is used in a coupled luciferin/luciferase reaction. The luminescent output is measured and is correlated with kinase activity.
All reactions are carried out at room temperature. A 3 μl mixture (1:1) of enzyme/lipid substrate solution is added to a 384 well white assay plate (Perkin Elmer #6007299) containing 50 nl of test compound or DMSO only for untreated controls. The reaction is started by the addition of 2 μl ATP/MgCl2. The kinase reaction buffer contains 50 mM HEPES, 50 mM NaCl, 3 mM MgCl2, 0.01% BSA, 1% DMSO, and enzyme and substrate concentrations as indicated in the above table. The reaction is stopped by the addition of 10 μL ADP-Glo reagent. Plates are read in a Perkin Elmer Envision system using luminescence mode. 10 point dose response curves are generated for each test compound. Ki values for each compound are determined using the Morrison Equation.
As for `NC(=O)[C@@H](Nc1cc2c3c(c1)nc(-c1cccc(OC(F)F)c1)n3CCCO2)C1CC1` [Example 143, (S)-2-Cyclopropyl-2-((1-(3-(difluoromethoxy)phenyl)-8,9-dihydro-7H-6-oxa-2,9a-diazabenzo[cd]azulen-4-yl)amino)acetamide], the inhibition constant (Ki) was 0.187 µM.

For `COc1ccc(-c2nc3cc(N[C@H](C(N)=O)C4CC4)cc4c3n2CCCO4)c(F)c1` [Example 144, (S)-2-Cyclopropyl-2-((1-(2-fluoro-4-methoxyphenyl)-8,9-dihydro-7H-6-oxa-2,9a-diazabenzo[cd]azulen-4-yl)amino)acetamide], the Ki came to 0.34 µM.

On to `NC(=O)[C@@H](Nc1cc2c3c(c1)nc(-c1ccc(F)cc1F)n3CCCO2)C1CC1` [Example 145, (S)-2-Cyclopropyl-2-((1-(2,4-difluorophenyl)-8,9-dihydro-7H-6-oxa-2,9a-diazabenzo[cd]azulen-4-yl)amino)acetamide], for which the inhibitory constant (Ki) came to 0.382 µM.

In the case of `Cn1cc(-c2nc3cc(N[C@H](C(N)=O)C4CC4)cc4c3n2CCCO4)ccc1=O` [Example 147, (S)-2-Cyclopropyl-2-((1-(1-methyl-6-oxo-1,6-dihydropyridin-3-yl)-8,9-dihydro-7H-6-oxa-2,9a-diazabenzo[cd]azulen-4-yl)amino)acetamide], the Ki turned out to be 0.139 µM.

With `NC(=O)[C@@H](Nc1cc2c3c(c1)nc(-c1cnc4c(c1)OCCO4)n3CCCO2)C1CC1` [Example 148, (S)-2-Cyclopropyl-2-((1-(2,3-dihydro-[1,4]dioxino[2,3-b]pyridin-7-yl)-8,9-dihydro-7H-6-oxa-2,9a-diazabenzo[cd]azulen-4-yl)amino)acetamide], the Ki was determined as 0.059 µM.

In the case of `NC(=O)[C@@H](Nc1cc2c3c(c1)nc(N1Cc4cnc(N)nc4C1)n3CCCO2)C1CC1` [Example 149, (S)-2-((1-(2-Amino-5H-pyrrolo[3,4-d]pyrimidin-6(7H)-yl)-8,9-dihydro-7H-6-oxa-2,9a-diazabenzo[cd]azulen-4-yl)amino)-2-cyclopropylacetamide], the inhibitory constant (Ki) came to 0.0182 µM.

For `NC(=O)[C@@H](Nc1cc2c3c(c1)nc(-c1ccc(OC(F)F)cc1)n3CCCO2)C1CC1` [Example 150, (S)-2-Cyclopropyl-2-((1-(4-(difluoromethoxy)phenyl)-8,9-dihydro-7H-6-oxa-2,9a-diazabenzo[cd]azulen-4-yl)amino)acetamide], the Ki came out at 0.49 µM.

On to `NC(=O)c1cc(-c2nc3cc(N[C@H](C(N)=O)C4CC4)cc4c3n2CCCO4)ccn1` [Example 151, (S)-4-(4-((2-Amino-1-cyclopropyl-2-oxoethyl)amino)-8,9-dihydro-7H-6-oxa-2,9a-diazabenzo[cd]azulen-1-yl)picolinamide], for which the Ki worked out at 0.0102 µM.

As to `Nc1nc2cc(-c3nc4cc(-c5cnn(CCO)c5)cc5c4n3CCCO5)ccc2o1` [Example 152, 2-(4-(1-(2-Aminobenzo[d]oxazol-5-yl)-8,9-dihydro-7H-6-oxa-2,9a-diazabenzo[cd]azulen-4-yl)-1H-pyrazol-1-yl)ethanol], the Ki worked out at 0.000638 µM.

Consider `Cn1cc(-c2cc3c4c(c2)nc(-c2ccc5oc(N)nc5c2)n4CCCO3)cn1` [Example 153, 5-(4-(1-Methyl-1H-pyrazol-4-yl)-8,9-dihydro-7H-6-oxa-2,9a-diazabenzo[cd]azulen-1-yl)benzo[d]oxazol-2-amine], for which the Ki stood at 0.00074 µM.

Consider `CNC(=O)C(C)(C)n1cc(-c2cc3c4c(c2)nc(-c2ccc5oc(N)nc5c2)n4CCCO3)cn1` [Example 154, 2-(4-(1-(2-Aminobenzo[d]oxazol-5-yl)-8,9-dihydro-7H-6-oxa-2,9a-diazabenzo[cd]azulen-4-yl)-1H-pyrazol-1-yl)-N,2-dimethylpropanamide], for which the inhibitory constant (Ki) was 0.000317 µM.

Turning to `NC(=O)[C@@H](Nc1cc2c3c(c1)nc(-c1ccc4[nH]c(=O)oc4c1)n3CCCO2)C1CC1` [Example 155, (S)-2-Cyclopropyl-2-((1-(2-oxo-2,3-dihydrobenzo[d]oxazol-6-yl)-8,9-dihydro-7H-6-oxa-2,9a-diazabenzo[cd]azulen-4-yl)amino)acetamide], the Ki came out at 0.078 µM.

For the molecule `NC(=O)[C@@H](Nc1cc2c3c(c1)nc(-c1ccn4ncnc4n1)n3CCCO2)C1CC1` [Example 156, (S)-2-((1-([1,2,4]triazolo[1,5-a]pyrimidin-5-yl)-8,9-dihydro-7H-6-oxa-2,9a-diazabenzo[cd]azulen-4-yl)amino)-2-cyclopropylacetamide], the Ki was 0.000264 µM.

For the molecule `NC(=O)c1cc(-c2nc3cc(N[C@H](C(N)=O)C4CC4)cc4c3n2CCCO4)ccc1F` [Example 157, (S)-5-(4-((2-Amino-1-cyclopropyl-2-oxoethyl)amino)-8,9-dihydro-7H-6-oxa-2,9a-diazabenzo[cd]azulen-1-yl)-2-fluorobenzamide], the Ki was 0.0165 µM.

As to `COC(=O)c1cc(-c2nc3cc(N[C@H](C(N)=O)C4CC4)cc4c3n2CCCO4)ccc1OC` [Example 158, (S)-Methyl 5-(4-((2-amino-1-cyclopropyl-2-oxoethyl)amino)-8,9-dihydro-7H-6-oxa-2,9a-diazabenzo[cd]azulen-1-yl)-2-methoxybenzoate], the inhibition constant (Ki) amounted to 0.206 µM.

With `CS(=O)(=O)c1cc(-c2nc3cc(N[C@H](C(N)=O)C4CC4)cc4c3n2CCCO4)ccn1` [Example 159, (S)-2-Cyclopropyl-2-((1-(2-(methylsulfonyl)pyridin-4-yl)-8,9-dihydro-7H-6-oxa-2,9a-diazabenzo[cd]azulen-4-yl)amino)acetamide], the inhibition constant (Ki) was 0.0872 µM.

Consider `Cc1nn(C)cc1-c1nc2cc(N[C@H](C(N)=O)C3CC3)cc3c2n1CCCO3` [Example 160, (S)-2-Cyclopropyl-2-[1-(1,3-dimethyl-1H-pyrazol-4-yl)-8,9-dihydro-7H-6-oxa-2,9a-diazabenzo[cd]azulen-4-ylamino]acetamide], for which the Ki stood at 0.914 µM.

`NC(=O)[C@@H](Nc1cc2c3c(c1)nc(N1CCn4ncnc4C1)n3CCCO2)C1CC1` [Example 161, (S)-2-Cyclopropyl-2-((1-(5,6-dihydro-[1,2,4]triazolo[1,5-a]pyrazin-7(8H)-yl)-8,9-dihydro-7H-6-oxa-2,9a-diazabenzo[cd]azulen-4-yl)amino)acetamide]: the inhibition constant (Ki) came out at 0.121 µM.

Turning to `C[C@H](Oc1cc2c3c(c1)nc(-c1ccc4oc(N)nc4c1)n3CCCO2)C(N)=O` [Example 162, (S)-2-((1-(2-Aminobenzo[d]oxazol-5-yl)-8,9-dihydro-7H-6-oxa-2,9a-diazabenzo [cd]azulen-4-yl)oxy)propanamide], the Ki stood at 0.000201 µM.

For `COc1ccc(-c2nc3cc(N[C@H](C(N)=O)C4CC4)cc4c3n2CCCO4)cc1OC(F)F` [Example 163, (S)-2-Cyclopropyl-2-((1-(3-(difluoromethoxy)-4-methoxyphenyl)-8,9-dihydro-7H-6-oxa-2,9a-diazabenzo[cd]azulen-4-yl)amino)acetamide], the inhibition constant (Ki) amounted to 0.0342 µM.

With `COc1ccc(-c2nc3cc(N[C@H](C(N)=O)C4CC4)cc4c3n2CCCO4)cc1C(N)=O` [Example 164, (S)-5-(4-((2-Amino-1-cyclopropyl-2-oxoethyl)amino)-8,9-dihydro-7H-6-oxa-2,9a-diazabenzo[cd]azulen-1-yl)-2-methoxybenzamide], the inhibitory constant (Ki) came to 0.16 µM.

With `NC(=O)[C@@H](Nc1cc2c3c(c1)nc(-c1ccncc1)n3CCCO2)C1CC1` [Example 165, (S)-2-Cyclopropyl-2-((1-(pyridin-4-yl)-8,9-dihydro-7H-6-oxa-2,9a-diazabenzo[cd]azulen-4-yl)amino)acetamide], the Ki is 0.108 µM.

For `OCc1nc2cc(-c3nc4cc(Br)cc5c4n3CCCO5)ccc2o1` [Example 168, (5-(4-Bromo-8,9-dihydro-7H-6-oxa-2,9a-diazabenzo[cd]azulen-1-yl)benzo[d]oxazol-2-yl)methanol], the Ki came to 0.402 µM.

As for `NC(=O)[C@@H](Nc1cc2c3c(c1)nc(-c1ccnc4[nH]ncc14)n3CCCO2)C1CC1` [Example 169, (S)-2-((1-(1H-Pyrazolo[3,4-b]pyridin-4-yl)-8,9-dihydro-7H-6-oxa-2,9a-diazabenzo[cd]azulen-4-yl)amino)-2-cyclopropylacetamide], the Ki amounted to 0.00392 µM.

Turning to `NC(=O)[C@@H](Nc1cc2c3c(c1)nc(-c1ccc4nc(N)sc4c1)n3CCCO2)C1CC1` [Example 170, (S)-2-((1-(2-Aminobenzo[d]thiazol-6-yl)-8,9-dihydro-7H-6-oxa-2,9a-diazabenzo[cd]azulen-4-yl)amino)-2-cyclopropylacetamide], the Ki was determined as 0.000614 µM.

`COc1cnc2cc(-c3nc4cc(N[C@H](C(N)=O)C5CC5)cc5c4n3CCCO5)ccc2n1` [Example 173, (S)-2-Cyclopropyl-2-((1-(2-methoxyquinoxalin-6-yl)-8,9-dihydro-7H-6-oxa-2,9a-diazabenzo[cd]azulen-4-yl)amino)acetamide]: the inhibition constant Ki worked out at 0.0465 µM.

Staying with this experiment, now noted: read-out: PI3Kα-(alpha) ATP (Ki) micromolar.
`Nc1nc2cc(-c3nc4cc(Br)cc5c4n3CCCCO5)ccc2o1` [Example 172, 5-(4-bromo-7,8,9,10-tetrahydro-6-oxa-2,10a-diazacycloocta[cd]-inden-1-yl)benzo[d]oxazol-2-amine]: the Ki worked out at 0.000501 µM.

The values are drawn from patent publication US10065970B2 (Genentech, Inc., priority 2015, dated 2018).
